Like-named read-outs stand apart in the source and are kept apart here.
Columns and labels:
PI3Kδ = molecular target: T1, PI3Kδ (Homo sapiens, UniProt O00329); experiment: Enzyme binding assay (KINOMEscan, DiscoveRx); conditions: PIK3Cδ_h
T1 construct: purchased DiscoveRx Corporation, San Diego (contract service, KINOMEscan)
T1 sequence (O00329 1-1044): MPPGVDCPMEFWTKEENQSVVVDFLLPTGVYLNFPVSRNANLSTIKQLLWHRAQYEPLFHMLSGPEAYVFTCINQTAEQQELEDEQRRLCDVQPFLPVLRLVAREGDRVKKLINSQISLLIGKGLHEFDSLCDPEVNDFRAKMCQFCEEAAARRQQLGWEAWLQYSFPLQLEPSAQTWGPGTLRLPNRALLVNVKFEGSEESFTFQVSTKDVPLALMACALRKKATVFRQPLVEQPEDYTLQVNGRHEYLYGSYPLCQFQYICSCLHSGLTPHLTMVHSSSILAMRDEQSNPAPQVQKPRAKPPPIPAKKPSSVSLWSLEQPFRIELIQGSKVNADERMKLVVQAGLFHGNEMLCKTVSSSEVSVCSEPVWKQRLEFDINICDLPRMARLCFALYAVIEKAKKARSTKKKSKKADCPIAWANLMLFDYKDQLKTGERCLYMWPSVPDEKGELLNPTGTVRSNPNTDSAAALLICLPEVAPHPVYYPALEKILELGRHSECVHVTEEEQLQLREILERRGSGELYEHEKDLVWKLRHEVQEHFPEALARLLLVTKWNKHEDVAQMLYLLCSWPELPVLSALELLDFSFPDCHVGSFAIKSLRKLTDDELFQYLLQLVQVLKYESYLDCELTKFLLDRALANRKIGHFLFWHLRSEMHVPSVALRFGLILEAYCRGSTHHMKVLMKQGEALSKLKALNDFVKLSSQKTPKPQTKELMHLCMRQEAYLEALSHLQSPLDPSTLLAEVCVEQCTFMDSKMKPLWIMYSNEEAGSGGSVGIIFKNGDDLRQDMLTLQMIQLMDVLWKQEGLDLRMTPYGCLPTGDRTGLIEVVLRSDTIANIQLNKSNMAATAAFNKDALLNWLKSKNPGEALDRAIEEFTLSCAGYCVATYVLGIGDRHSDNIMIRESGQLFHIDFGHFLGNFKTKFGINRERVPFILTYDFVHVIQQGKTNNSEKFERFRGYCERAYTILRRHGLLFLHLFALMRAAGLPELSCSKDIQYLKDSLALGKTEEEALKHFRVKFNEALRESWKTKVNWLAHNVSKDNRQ
Outline: (§1)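 KINOMEscan readout; values are kinase binding affinities.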

[1] = system: Akt phosphorylated at Thr308 in PC-3 cells; experiment: Cellular assay: phosphorylation of Akt at Thr308 in PC-3 cells (MSD ELISA); assay type: cell-based; conditions: PC-3 cells, 60 min compound incubation, MSD ELISA, read-out: IC50 pAkt_Thr308
Outline: (§2)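 After lysis of treated cells (60 min, 37° C, 0.3% DMSO), phospho-Akt levels were measured by MSD electrochemiluminescence ELISA. Potency was derived from concentration-response curves fitted over five concentrations.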

PI3Kβ = molecular target: T2, PI3Kβ (Homo sapiens, UniProt P42338); experiment: Enzyme binding assay (KINOMEscan, DiscoveRx); conditions: PIK3Cβ_h, read-out: Kd PIK3Cβ_h
T2 construct: purchased DiscoveRx Corporation, San Diego (contract service, KINOMEscan)
Outline: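 KINOMEscan binding platform; read-out is the inhibitor binding constant Kd (nM).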

kinase enzymes [2] = molecular target: T3, kinase enzymes (Homo sapiens, UniProt P48736); experiment: Enzyme binding assay (KINOMEscan, DiscoveRx), further kinases of Table A; conditions: PIK3Cγ_h
T3 construct: purchased DiscoveRx Corporation, San Diego (contract service, KINOMEscan)
Outline: as §1

kinase enzymes [3] = molecular target: T4, kinase enzymes (Homo sapiens, UniProt P42345); experiment: as above; conditions: MTOR_h
T4 construct: purchased DiscoveRx Corporation, San Diego (contract service, KINOMEscan)
Outline: as §1

kinase enzymes [4] = molecular target: T5, kinase enzymes (Homo sapiens, UniProt P42336); experiment: as above; conditions: PIK3Cα_h
T5 construct: purchased DiscoveRx Corporation, San Diego (contract service, KINOMEscan)
Outline: as §1

[5] = system: Akt phosphorylated at Ser473 in PC-3 cells; experiment: Cellular assay: phosphorylation of Akt at Ser473 in PC-3 cells (MSD ELISA); assay type: cell-based; conditions: PC-3 cells, 60 min compound incubation, MSD ELISA, read-out: IC50 pAkt_S473
Outline: as §2

T3 sequence (P48736 whole entry): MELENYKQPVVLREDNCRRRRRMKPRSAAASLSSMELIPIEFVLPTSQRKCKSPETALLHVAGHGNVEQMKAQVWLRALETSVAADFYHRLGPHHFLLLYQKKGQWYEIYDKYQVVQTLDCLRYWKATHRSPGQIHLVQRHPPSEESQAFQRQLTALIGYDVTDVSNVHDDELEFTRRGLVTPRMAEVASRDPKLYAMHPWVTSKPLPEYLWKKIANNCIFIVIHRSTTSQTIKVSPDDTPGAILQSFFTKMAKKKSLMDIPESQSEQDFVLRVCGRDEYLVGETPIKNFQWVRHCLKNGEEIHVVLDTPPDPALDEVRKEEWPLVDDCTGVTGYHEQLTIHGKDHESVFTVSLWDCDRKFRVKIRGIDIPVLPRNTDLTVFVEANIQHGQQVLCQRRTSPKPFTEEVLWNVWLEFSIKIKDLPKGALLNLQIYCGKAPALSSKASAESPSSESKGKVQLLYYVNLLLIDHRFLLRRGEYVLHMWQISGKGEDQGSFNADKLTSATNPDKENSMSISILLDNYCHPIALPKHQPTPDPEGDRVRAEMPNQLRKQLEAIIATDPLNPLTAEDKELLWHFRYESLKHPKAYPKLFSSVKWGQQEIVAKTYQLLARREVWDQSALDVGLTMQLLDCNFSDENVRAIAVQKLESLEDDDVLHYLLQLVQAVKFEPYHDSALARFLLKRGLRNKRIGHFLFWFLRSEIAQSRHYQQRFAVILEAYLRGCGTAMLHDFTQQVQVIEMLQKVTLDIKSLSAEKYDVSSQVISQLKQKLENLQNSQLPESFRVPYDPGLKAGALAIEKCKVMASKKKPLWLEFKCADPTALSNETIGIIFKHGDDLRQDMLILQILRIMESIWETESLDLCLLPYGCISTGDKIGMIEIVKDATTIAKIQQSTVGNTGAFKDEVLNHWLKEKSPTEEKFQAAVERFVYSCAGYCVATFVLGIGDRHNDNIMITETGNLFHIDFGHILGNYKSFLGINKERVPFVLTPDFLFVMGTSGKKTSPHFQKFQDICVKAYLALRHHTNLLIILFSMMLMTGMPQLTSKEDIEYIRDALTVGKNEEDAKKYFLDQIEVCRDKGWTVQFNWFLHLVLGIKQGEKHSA
T2 sequence (P42338 whole entry): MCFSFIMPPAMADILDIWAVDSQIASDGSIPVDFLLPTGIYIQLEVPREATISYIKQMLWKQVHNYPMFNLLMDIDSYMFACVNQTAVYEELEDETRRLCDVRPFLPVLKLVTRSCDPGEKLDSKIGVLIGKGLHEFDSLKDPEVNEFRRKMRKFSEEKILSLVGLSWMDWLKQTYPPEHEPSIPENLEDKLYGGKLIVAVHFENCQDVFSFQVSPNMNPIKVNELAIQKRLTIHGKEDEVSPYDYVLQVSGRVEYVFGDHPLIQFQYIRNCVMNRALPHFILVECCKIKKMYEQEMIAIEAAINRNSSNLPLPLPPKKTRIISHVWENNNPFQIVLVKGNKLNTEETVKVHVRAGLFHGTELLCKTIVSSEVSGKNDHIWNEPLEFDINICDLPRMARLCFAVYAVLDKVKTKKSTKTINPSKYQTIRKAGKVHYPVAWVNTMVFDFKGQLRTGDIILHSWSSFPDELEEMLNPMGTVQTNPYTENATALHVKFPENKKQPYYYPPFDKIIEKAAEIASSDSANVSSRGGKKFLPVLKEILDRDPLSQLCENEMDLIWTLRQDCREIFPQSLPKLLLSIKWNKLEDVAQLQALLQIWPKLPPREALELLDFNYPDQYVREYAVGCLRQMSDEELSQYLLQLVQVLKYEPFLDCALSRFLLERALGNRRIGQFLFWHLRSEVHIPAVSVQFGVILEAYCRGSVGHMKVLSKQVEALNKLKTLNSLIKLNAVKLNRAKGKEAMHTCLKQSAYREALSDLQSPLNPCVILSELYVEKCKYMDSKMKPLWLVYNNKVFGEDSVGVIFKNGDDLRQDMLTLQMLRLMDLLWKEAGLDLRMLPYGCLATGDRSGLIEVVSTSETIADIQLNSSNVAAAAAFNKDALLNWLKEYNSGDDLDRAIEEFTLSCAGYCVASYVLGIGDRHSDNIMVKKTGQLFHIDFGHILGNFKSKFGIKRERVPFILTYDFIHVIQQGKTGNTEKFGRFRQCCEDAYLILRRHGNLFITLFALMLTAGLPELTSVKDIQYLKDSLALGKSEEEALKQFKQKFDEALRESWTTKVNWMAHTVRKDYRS
T5 sequence (P42336 whole entry): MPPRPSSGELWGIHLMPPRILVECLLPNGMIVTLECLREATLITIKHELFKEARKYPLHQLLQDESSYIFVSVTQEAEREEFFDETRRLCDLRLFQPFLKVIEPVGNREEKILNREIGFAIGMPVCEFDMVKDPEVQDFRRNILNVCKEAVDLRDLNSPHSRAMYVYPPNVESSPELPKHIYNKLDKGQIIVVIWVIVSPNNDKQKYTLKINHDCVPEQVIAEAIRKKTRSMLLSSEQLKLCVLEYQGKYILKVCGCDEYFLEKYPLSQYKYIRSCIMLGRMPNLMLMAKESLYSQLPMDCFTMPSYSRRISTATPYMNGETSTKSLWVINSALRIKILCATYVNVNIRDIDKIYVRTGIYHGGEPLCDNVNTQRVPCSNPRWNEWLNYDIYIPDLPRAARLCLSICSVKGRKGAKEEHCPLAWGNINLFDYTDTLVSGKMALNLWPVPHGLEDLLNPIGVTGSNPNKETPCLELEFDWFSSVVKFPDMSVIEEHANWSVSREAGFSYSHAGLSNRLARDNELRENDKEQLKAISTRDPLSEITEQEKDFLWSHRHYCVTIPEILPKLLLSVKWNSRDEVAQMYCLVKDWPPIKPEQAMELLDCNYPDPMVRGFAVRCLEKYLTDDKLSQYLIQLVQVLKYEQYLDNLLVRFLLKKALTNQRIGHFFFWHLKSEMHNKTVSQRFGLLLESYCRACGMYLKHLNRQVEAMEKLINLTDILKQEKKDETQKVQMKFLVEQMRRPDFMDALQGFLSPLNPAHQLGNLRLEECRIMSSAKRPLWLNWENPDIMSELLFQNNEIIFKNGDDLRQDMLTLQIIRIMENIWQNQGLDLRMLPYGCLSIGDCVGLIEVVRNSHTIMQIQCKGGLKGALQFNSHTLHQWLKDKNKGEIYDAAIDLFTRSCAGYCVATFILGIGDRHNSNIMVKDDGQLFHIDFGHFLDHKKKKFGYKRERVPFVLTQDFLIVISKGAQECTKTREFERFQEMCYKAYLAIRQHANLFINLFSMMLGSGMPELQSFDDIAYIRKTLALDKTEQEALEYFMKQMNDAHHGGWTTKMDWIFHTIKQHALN

Structure (SMILES) | Kd (PI3Kδ) | melting point | IC50 ([1]; Homo sapiens, PC-3, 1 h) | Kd (PI3Kβ) | Kd (kinase enzymes [2]) | Kd (kinase enzymes [3]) | Kd (kinase enzymes [4]) | IC50 ([5]; Homo sapiens, PC-3, 1 h) | IC50 [1] | IC50 [5]
CN(C)C(=O)c1cc(C2CCCN2c2cc(F)cc(CO)c2)c2nc(N3CCOCC3)cnc2c1 (centres unmarked) [Compound 45] | 126 nM | 80 °C | 72 nM | 3 nM | 2090 nM | 31600 nM | 170 nM | 166 nM |  | 
CN(C)C(=O)c1cc(C2CCCN2c2ccc(F)cc2)c2nc(N3CCOCC3)cnc2c1 (centres unmarked) [Compound 42] | 56 nM | 80 °C | 11 nM | 1 nM | 1480 nM | > 30200 nM | 331 nM | 16 nM |  | 
CC(Nc1cc(F)cc(F)c1)c1cc(CNCC(F)F)cc2ncc(N3CCOCC3)nc12 (centres unmarked) [Compound 164] | 1100 nM | 116 °C | 71 nM | 4 nM | 13800 nM | > 30200 nM | 2400 nM | 145 nM |  | 
CNCCN(C)C(=O)c1cc(C(C)Nc2cc(F)c(C(F)(F)F)c(F)c2)c2nc(N3CCOCC3)cnc2c1 (centres unmarked) [Compound 224] | 4470 nM | 163 °C | > 513 nM | 186 nM | > 30200 nM | > 30200 nM | 27500 nM | 468 nM |  | 
CC(Oc1cc(F)cc(F)c1)c1cc(C(=O)NCCO)cc2ncc(N3CCOCC3)nc12 (centres unmarked) [Compound 198] | 3160 nM | 171 °C | 200 nM | 22 nM | 15500 nM | > 30200 nM | 11200 nM | > 513 nM |  | 
CNCCNC(=O)c1cc(C(C)Nc2cc(F)cc(Cl)c2)c2nc(N3CCOCC3)cnc2c1 (centres unmarked) [Compound 147] | 129 nM | 80 °C | 6 nM | 0.4 nM | 1150 nM | > 30200 nM | 776 nM | 10 nM |  | 
COc1cc(F)cc(N2CCCC2c2cc(C(=O)N(C)C)cc3ncc(N4CCOCC4)nc23)c1 (centres unmarked) [Compound 32] | 85 nM | 80 °C | 17 nM | 1 nM | 646 nM | > 30200 nM | 120 nM | 12 nM |  | 
O=C(c1cc(C2CCCN2c2cc(F)cc(F)c2)c2nc(N3CCOCC3)cnc2c1)N1CC(CO)C1 (centres unmarked) [Compound 63] | 27 nM | 100 °C | 4 nM | 0.5 nM | 891 nM | 8130 nM | 79 nM | 9 nM |  | 
CNCCNC(=O)c1cc(C2CCCN2c2cc(F)cc(F)c2)c2nc(N3CCOCC3)cnc2c1 (single isomer, unassigned) [Compound 17] | 3 nM | 170 °C | 1 nM | 0.1 nM | 107 nM | 12300 nM | 25 nM | ~3 nM |  | 
CNCCNC(=O)c1cc(C2CCCN2c2cc(F)cc(F)c2)c2nc(N3CCOCC3)cnc2c1 (centres unmarked) [Compound 72] | 17 nM | 80 °C | 1 nM | 0.2 nM | 204 nM | 20400 nM | 56 nM | 2 nM |  | 
CC(Nc1ccc(F)c(F)c1)c1cc(C(=O)N2CCN3CCC[C@@H]3C2)cc2ncc(N3CCOCC3)nc12 (some centres unmarked) [Compound 347] | 407 nM | 170 °C | 63 nM | 4 nM | 28800 nM | > 30200 nM | 3720 nM |  |  | 219 nM
CC(Nc1cc(F)cc(F)c1)c1cc(C(=O)N2CCOCC2)cc2ncc(N3CCOCC3)nc12 (single isomer, unassigned) [Compound 8] | 109 nM | 100 °C |  | 1 nM | 3860 nM | 20900 nM | 396 nM |  | 20 nM | 25 nM
CC(Nc1cc(F)cc(F)c1)c1cc(C(=O)N(C)CCN(C)C)cc2ncc(N3CCOCC3)nc12 (single isomer, unassigned) [Compound 181] | 20400 nM | 134 °C | ~398 nM | 117 nM | 17800 nM | > 30200 nM | 5010 nM |  |  | ~447 nM
CNCC(O)c1cc(C2CCCN2c2cc(F)cc(F)c2)c2nc(N3CCOCC3)cnc2c1 (centres unmarked) [Compound 19] | 29 nM | 80 °C | 10 nM | 0.2 nM | 309 nM | 18200 nM | 363 nM | 15 nM |  | 
CC(Nc1cc(F)cc(F)c1)c1cc(C(=O)N(C)CCN(C)C)cc2ncc(N3CCOCC3)nc12 (centres unmarked) [Compound 180] | 49 nM | 148 °C | 1 nM | 0.1 nM | 2190 nM | > 30200 nM | 891 nM | 3 nM |  | 

The next lines start with the values.

Kd (PI3Kδ) | melting point | IC50 ([1]; Homo sapiens, PC-3, 1 h) | Kd (PI3Kβ) | Kd (kinase enzymes [2]) | Kd (kinase enzymes [3]) | Kd (kinase enzymes [4]) | IC50 ([5]; Homo sapiens, PC-3, 1 h) | IC50 [1] | IC50 [5] | Structure (SMILES)
1550 nM | 173 °C | 52 nM | 7 nM | 19100 nM | > 30200 nM | 12000 nM | 81 nM |  |  | CC(C)NCCNC(=O)c1cc(C(C)Nc2cc(F)c(F)c(F)c2)c2nc(N3CCOCC3)cnc2c1 (single isomer, unassigned) [Compound 283a]
83 nM | 114 °C |  | 0.3 nM | 1050 nM | > 30200 nM | 1510 nM |  | 2 nM | 10 nM | CN[C@@H]1CCN(C(=O)c2cc(C(C)Nc3ccc(F)c(F)c3)c3nc(N4CCOCC4)cnc3c2)C1 (single isomer, unassigned) [Compound 371a]
2950 nM | 95 °C | 417 nM | 27 nM | > 30200 nM | > 30200 nM | 9330 nM | > 513 nM |  |  | CC(Nc1ccc(F)c(F)c1)c1cc(C(=O)N2CCN3CCC[C@H]3C2)cc2ncc(N3CCOCC3)nc12 (single isomer, unassigned) [Compound 287b]
> 30200 nM | 135 °C | > 513 nM | 1320 nM | > 30200 nM | > 30200 nM | > 30200 nM | > 513 nM |  |  | CC(Nc1ccc(F)c(F)c1)c1cc(C(=O)N2CCC[C@H](O)C2)cc2ncc(N3CCOCC3)nc12 (single isomer, unassigned) [Compound 302a]
204 nM | 120 °C |  | 1 nM | 5010 nM | > 30200 nM | 105 nM |  | 4 nM | 6 nM | CC(Nc1cc(F)cc(F)c1)c1cc(C(=O)N2CCNC(C(F)(F)F)C2)cc2ncc(N3CCOCC3)nc12 (single isomer, unassigned) [Compound 237a]
> 30200 nM | 112 °C |  | 2150 nM | 5070 nM | > 30200 nM | > 30200 nM |  | > 513 nM | > 513 nM | CC(Nc1cc(F)c(F)c(F)c1)c1cc(C(=O)NC[C@@H](C)O)cc2ncc(N3CCOCC3)nc12 (single isomer, unassigned) [Compound 284b]
562 nM | 80 °C |  | 12 nM | 12000 nM | 20900 nM | 1700 nM |  | 45 nM | 87 nM | CC(Nc1ccc(F)c(F)c1)c1cc(C(=O)NCCCO)cc2ncc(N3CCOCC3)nc12 (single isomer, unassigned) [Compound 280a]
